This is an account of results in patent US20260345590A1, “COMBINATIONS OF ESTROGEN RECEPTOR DEGRADERS AND AKT INHIBITORS” (Arvinas Operations, Inc., priority 2023, published 2026).

One data set concerns AKT isoforms. The settings on record: cited from earlier work.
A further data set deals with MCF7 cells. Nature of the data set: Dose-Response Matrix Assay (cell viability, Cell-Titer Glo, Combenefit synergy analysis). Format: cell-based. The settings on record: 8-point curve 100 to 0.046 nM, Day 5. The protocol: Cells were seeded at 2×10^3 cells in 200 μl of media per well in 96 well plates and incubated overnight at 37 °C. […] At Day 5 cell viability was measured using Cell-Titer Glo and CTG data were analyzed with the Combenefit Software (5).

Data set [1] can be described thus: Biopharmaceutics Classification System classification. Format: physicochemical. The following applies: BCS Class IV.
Another data set concerns the target T1, ER (Homo sapiens, UniProt P03372).
T1 construct: cells or constructs not described in excerpts
T1 sequence (P03372 1-595): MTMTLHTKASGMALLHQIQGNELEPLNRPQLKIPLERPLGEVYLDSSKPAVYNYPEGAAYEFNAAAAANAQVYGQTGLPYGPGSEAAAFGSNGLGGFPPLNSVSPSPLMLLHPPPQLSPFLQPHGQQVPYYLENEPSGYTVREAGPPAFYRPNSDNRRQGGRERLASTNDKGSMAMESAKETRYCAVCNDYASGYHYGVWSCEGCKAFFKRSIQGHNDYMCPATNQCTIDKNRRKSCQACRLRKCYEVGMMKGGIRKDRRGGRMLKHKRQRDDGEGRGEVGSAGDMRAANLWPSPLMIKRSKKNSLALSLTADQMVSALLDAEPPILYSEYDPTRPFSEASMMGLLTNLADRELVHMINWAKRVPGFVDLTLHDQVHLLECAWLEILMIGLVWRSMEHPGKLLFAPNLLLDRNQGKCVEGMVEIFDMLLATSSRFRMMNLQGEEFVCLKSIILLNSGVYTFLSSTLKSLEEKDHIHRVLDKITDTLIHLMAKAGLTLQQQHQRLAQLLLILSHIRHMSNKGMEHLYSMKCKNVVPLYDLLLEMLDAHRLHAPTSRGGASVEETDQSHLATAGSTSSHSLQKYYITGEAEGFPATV
Nature of the data set: degradation of the ER.

A short description of data set [2]: exposure of epimer Compound C relative to Compound A (preclinical data). Format: in vivo.

Take `Cn1ncc(Cl)c1-c1cc(C(=O)N[C@H](CN)Cc2cccc(F)c2)sc1Cl` [Afuresertib, N-[(2S)-1-amino-3-(3-fluorophenyl)propan-2-yl]-5-chloro-4-(4-chloro-2-methyl-3-pyrazolyl)-2-thiophenecarboxamide]: the “mode of AKT kinase inhibition” value in the data set on AKT isoforms is given as “reversible, ATP-competitive”. Moreover, the “pan-AKT kinase inhibition potency” value with AKT isoforms (reversible, ATP-competitive) is on record as “low-nanomolar”.

Consider `NC1(C(=O)N[C@@H](CCO)c2ccc(Cl)cc2)CCN(c2ncnc3[nH]ccc23)CC1` [Capivasertib, 4-amino-N-[(1S)-1-(4-chlorophenyl)-3-hydroxypropyl]-1-(7H-pyrrolo[2,3-d]pyrimidin-4-yl)piperidine-4-carboxamide], for which the “binding to and inhibition of AKT isoforms” value in the data set with AKT isoforms is “binds to and inhibits all AKT isoforms”.

Take `O=C1CC[C@H](N2Cc3cc(N4CCN(CC5CCN(c6ccc([C@@H]7c8ccc(O)cc8CC[C@@H]7c7ccccc7)cc6)CC5)CC4)ccc3C2=O)C(=O)N1` [Compound A, (S)-3-(5-(4-((1-(4-((1R,2S)-6-hydroxy-2-phenyl-1,2,3,4-tetrahydronaphthalen-1-yl)phenyl)piperidin-4-yl)methyl)piperazin-1-yl)-1-oxoisoindolin-2-yl)piperidine-2,6-dione]: the “synergy on cell viability” value in the data set on MCF7 cells (combination with afuresertib) is given as “evidence of synergy”. Also, in the data set on MCF7 cells (combination with capivasertib), the “synergy on cell viability” value was “evidence of synergy”. Also, in data set [1], the permeability result is “low permeability” and the solubility entry is “low solubility”.

For `O=C1CC[C@@H](N2Cc3cc(N4CCN(CC5CCN(c6ccc([C@@H]7c8ccc(O)cc8CC[C@@H]7c7ccccc7)cc6)CC5)CC4)ccc3C2=O)C(=O)N1` [Compound C], the “degradation of the ER” value at ER was “does not degrade the ER”. Further, in data set [2], the “exposure of Compound C compared to Compound A” value is given as less than 26%.
